{
  "source": "paper PMC9291711",
  "about": "“PLGA-modified Syloid®-based microparticles for the ocular delivery of terconazole: in-vitro and in-vivo investigations” (Drug Delivery, 2022)",
  "origin": "cited, not measured here",
  "conditions": "stated without reference",
  "data": [
    {"smiles": "CC(C)N1CCN(c2ccc(OCC3COC(Cn4cncn4)(c4ccc(Cl)cc4Cl)O3)cc2)CC1", "note": "(centres unmarked) [Terconazole, terconazole]", "values": [
      {"measurement": "Pka", "result": 8},
      {"measurement": "log P", "result": 5.37}
    ]}
  ]
}
